Measurements: PMC5026600 (ACS chemical biology, 2016)
Where two headings read alike, the source gives them in different places.

Columns and labels:
MycCI/MycCII/MBP-FdR = target: T1, MycCI/MycCII/MBP-FdR (Micromonospora griseorubida, UniProt Q83WF5); assay: Steady-state kinetics / TOF, product formation by HPLC; assay type: biochemical
T1 sequence (Q83WF5 1-388): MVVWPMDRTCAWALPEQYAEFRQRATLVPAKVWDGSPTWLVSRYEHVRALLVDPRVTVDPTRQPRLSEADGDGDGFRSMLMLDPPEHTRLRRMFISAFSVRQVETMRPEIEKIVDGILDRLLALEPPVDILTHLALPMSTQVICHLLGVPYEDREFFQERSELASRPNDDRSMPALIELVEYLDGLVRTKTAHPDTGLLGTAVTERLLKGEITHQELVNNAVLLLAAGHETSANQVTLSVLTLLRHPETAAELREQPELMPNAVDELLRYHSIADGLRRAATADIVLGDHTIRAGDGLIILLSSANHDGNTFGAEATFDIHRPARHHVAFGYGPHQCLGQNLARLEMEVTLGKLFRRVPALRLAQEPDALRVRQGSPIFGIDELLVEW

MycCI [1] = target: T2, MycCI (Micromonospora griseorubida, UniProt Q83WF5); conditions: determined by monitoring NADPH consumption; cited from earlier work
T2 sequence (Q83WF5 1-388): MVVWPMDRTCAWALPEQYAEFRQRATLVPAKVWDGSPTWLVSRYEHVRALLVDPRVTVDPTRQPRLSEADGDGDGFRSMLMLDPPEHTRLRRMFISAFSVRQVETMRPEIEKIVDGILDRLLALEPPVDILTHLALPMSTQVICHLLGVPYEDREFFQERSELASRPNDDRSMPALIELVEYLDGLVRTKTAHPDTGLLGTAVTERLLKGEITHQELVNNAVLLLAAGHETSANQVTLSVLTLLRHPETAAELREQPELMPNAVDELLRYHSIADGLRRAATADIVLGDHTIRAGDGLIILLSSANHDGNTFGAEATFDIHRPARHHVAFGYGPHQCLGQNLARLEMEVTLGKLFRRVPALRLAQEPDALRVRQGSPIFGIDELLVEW

MycCI-RhFRED = MycCI-RhFRED (Micromonospora griseorubida, UniProt Q83WF5); assay: Steady-state kinetics / TOF, product formation by HPLC; assay type: biochemical; conditions: for Fold lower rate of product formation vs tripartite MycCI system: MycCI-RhFRED compared to MycCI/MycCII/MBP-FdR, label is the product formed
TamI-RhFRED = conditions: cited from earlier work
TylHI/MycCII = TylHI/MycCII (Streptomyces fradiae, UniProt Q9ZHQ1); assay: Turnover frequency; assay type: biochemical; conditions: MycCII as surrogate ferredoxin vs TylHII
TylHI/MycCII, sequence (Q9ZHQ1 whole entry): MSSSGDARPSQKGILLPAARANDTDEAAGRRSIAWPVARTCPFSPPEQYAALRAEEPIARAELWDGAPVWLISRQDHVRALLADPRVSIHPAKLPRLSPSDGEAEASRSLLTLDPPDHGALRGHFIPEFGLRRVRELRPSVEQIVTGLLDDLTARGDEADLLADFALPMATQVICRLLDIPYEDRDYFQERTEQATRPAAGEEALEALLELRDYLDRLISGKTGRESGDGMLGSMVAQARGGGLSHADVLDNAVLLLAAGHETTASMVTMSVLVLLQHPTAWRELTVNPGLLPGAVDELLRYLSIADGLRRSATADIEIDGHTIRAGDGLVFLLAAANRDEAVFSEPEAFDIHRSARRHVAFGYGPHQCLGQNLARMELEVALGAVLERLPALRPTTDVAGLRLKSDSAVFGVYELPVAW

TylHI/TylHII = TylHI/TylHII (Streptomyces fradiae, UniProt Q9ZHQ1); assay: Turnover frequency; assay type: biochemical; conditions: TylHI/TylHII/MBP-FdR
TylHI/TylHII, sequence (Q9ZHQ1 whole entry): as above

MycCI [2] = target: T2, MycCI; assay: Equilibrium substrate binding assay; conditions: for Percent of enzyme in high-spin state at saturating substrate: MycCI wild-type, relative to saturation with 10 taken as complete conversion
MycCI/MycCII = target: T3, MycCI/MycCII (Micromonospora griseorubida, UniProt Q83WF5); assay: Total turnover number; assay type: biochemical; conditions: MycCI/MycCII/MBP-FdR
T3 sequence (Q83WF5 1-388): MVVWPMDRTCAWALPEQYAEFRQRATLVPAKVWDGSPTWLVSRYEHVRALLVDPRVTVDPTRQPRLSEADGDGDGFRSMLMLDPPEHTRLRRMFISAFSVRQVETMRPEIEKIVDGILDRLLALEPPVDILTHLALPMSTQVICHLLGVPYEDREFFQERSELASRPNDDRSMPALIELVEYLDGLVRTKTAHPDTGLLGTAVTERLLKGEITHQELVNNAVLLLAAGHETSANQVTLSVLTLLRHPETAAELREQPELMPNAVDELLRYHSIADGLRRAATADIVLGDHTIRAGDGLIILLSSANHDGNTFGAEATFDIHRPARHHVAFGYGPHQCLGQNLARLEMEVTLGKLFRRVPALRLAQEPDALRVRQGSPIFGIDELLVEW

OleP = conditions: binding to OleP; cited from earlier work
[3] = target: T4, MycCI in conjunction with MycCII and MBP-FdR (Micromonospora griseorubida, UniProt Q83WF5); assay: Scale-up reactions with MycCI, MycCII and MBP-FdR, conversion; assay type: biochemical; conditions: for Conversion: scale-up reactions
T4 sequence (Q83WF5 1-388): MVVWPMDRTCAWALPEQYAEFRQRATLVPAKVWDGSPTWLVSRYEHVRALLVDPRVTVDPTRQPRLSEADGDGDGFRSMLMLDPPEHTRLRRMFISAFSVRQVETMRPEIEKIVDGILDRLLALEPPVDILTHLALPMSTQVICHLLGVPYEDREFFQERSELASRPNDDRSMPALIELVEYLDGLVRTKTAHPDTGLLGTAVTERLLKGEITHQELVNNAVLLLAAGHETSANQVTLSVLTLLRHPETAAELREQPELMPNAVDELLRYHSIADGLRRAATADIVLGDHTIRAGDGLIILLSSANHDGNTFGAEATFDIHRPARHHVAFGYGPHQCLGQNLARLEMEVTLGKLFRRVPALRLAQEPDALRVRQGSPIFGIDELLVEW

[4] = target: MycCI (Micromonospora griseorubida) (UniProt Q83WF5); conditions: cited from earlier work
MycCI [5] = target: T2, MycCI; conditions: read-out: apparent dissociation constant (Kd); N-terminal His-tagged MycCII binding to MycCI; cited from earlier work

Molecule: CC[C@H]1OC(=O)/C=C/[C@H](C)[C@@H](O[C@@H]2O[C@H](C)C[C@H](N(C)C)[C@H]2O)[C@@H](C)C[C@@H](C)C(=O)/C=C/C=C/[C@@H]1C [compound 9, mycinamicin VIII]
- Turnover rate at low substrate concentration (MycCI/MycCII/MBP-FdR; MycCI/MycCII/MBP-FdR, 10 μM substrate): 2.3 ± 0.3 min⁻¹
- Turnover frequency (TOF) (MycCI/MycCII/MBP-FdR; tripartite MycCI/MycCII/MBP-FdR, 500 μM substrate): 1.4 ± 0.1 min⁻¹
- kcat (MycCI [1]): 1.73 ± 0.033 s⁻¹
- Turnover frequency (TOF) (MycCI-RhFRED; MycCI-RhFRED, 500 μM substrate): 1.19 ± 0.06 min⁻¹

Molecule: 23-hydroxy-tylactone [compound 15]
- Fold lower rate of product formation vs tripartite MycCI system (MycCI-RhFRED): about 3 fold

Molecule: CC(/C=C/C(O)=C1/C(=O)CNC1=O)=C\[C@@H](C)[C@H]1O[C@@]2(C)O[C@H](C(=O)[C@H]3O[C@]32C)[C@@H]1C [tirandamycin A]
- kcat (TamI-RhFRED): 0.00183 ± 0.00017 s⁻¹

Molecule: CC[C@H]1OC(=O)C[C@@H](O)[C@H](C)[C@@H](O[C@@H]2O[C@H](C)[C@@H](O)[C@H](N(C)C)[C@H]2O)[C@@H](CC=O)C[C@@H](C)C(=O)/C=C/C(C)=C/[C@@H]1C [compound 12, 23-deoxy-5-O-mycaminosyl-tylonolide]
- Fold increase of TOF with MycCII instead of TylHII (TylHI/MycCII): 12 fold
- Turnover frequency (TOF) (TylHI/TylHII): 0.14 ± 0.03 min⁻¹

Molecule: CC[C@H]1OC(=O)/C=C/[C@H](C)[C@@H](O)[C@@H](C)C[C@@H](C)C(=O)/C=C/C=C/[C@@H]1CO [compound 13, mycinolide IV]
- Fold lower rate of product formation vs tripartite MycCI system (MycCI-RhFRED): ~6 fold

Molecule: CC[C@H]1OC(=O)[C@H](C)C(=O)[C@H](C)[C@@H](O)[C@@H](C)C[C@@H](C)C(=O)/C=C/[C@H]1C [compound 4, narbonolide]
- Concentration-dependent change in the spin state of the enzyme (MycCI [2]; MycCI): did not induce a concentration-dependent change in the spin state
- C-H oxidation of the compound by the enzyme (MycCI/MycCII): unable to catalyze C-H oxidation

Molecule: CC[C@H]1OC(=O)[C@H](C)[C@@H](O)[C@@H](C)C[C@@H](C)C(=O)/C=C/[C@H]1C [compound 2, 10-deoxymethynolide]
- Concentration-dependent change in the spin state of the enzyme (MycCI [2]; MycCI): did not induce a concentration-dependent change in the spin state
- C-H oxidation of the compound by the enzyme (MycCI/MycCII): unable to catalyze C-H oxidation

Molecule: CC(=O)N1CCN(c2ccc(OCC3COC(Cn4ccnc4)(c4ccc(Cl)cc4Cl)O3)cc2)CC1 (centres unmarked) [ketoconazole]
- Kd (OleP): 0.005 µM

Molecule: CC[C@H]1C[C@@H](C)C(=O)/C=C/C(C)=C/[C@H](C)[C@@H](CC)OC(=O)C[C@@H](O)[C@H](C)[C@H]1O [compound 10, tylactone]
- Conversion [3]: ~ 50%
- Kd (MycCI [2]; Kd, MycCI): ~3 µM

Molecule: CC[C@H]1OC(=O)/C=C/[C@H](C)[C@@H](O)[C@@H](C)C[C@@H](C)C(=O)/C=C/C=C/[C@@H]1C [compound 8, protomycinolide IV]
- Conversion [3]: ~ 30%
- Percent of enzyme in high-spin state at saturating substrate (MycCI [2]): ~ 80%
- Fold lower specificity constant relative to 10 (MycCI-RhFRED; MycCI-RhFRED, product formation): ~ 14 fold

Molecule: CC[C@H]1OC(=O)[C@H](C)C(=O)[C@H](C)[C@@H](O[C@@H]2O[C@H](C)C[C@H](N(C)C)[C@H]2O)[C@@H](C)C[C@@H](C)C(=O)/C=C/[C@H]1C [compound 5, narbomycin]
- Monohydroxylated product, share of the reaction mixture ([3]; scale-up, first monohydroxylated product): ~ 2%
- Slightly more polar monohydroxylated product, share of the reaction mixture ([3]; scale-up, second product): ~ 0.5%
- Percent of enzyme in high-spin state at saturating substrate (MycCI [2]): ~ 80%

Molecule: CC[C@H]1OC(=O)[C@H](C)[C@@H](O[C@@H]2O[C@H](C)C[C@H](N(C)C)[C@H]2O)[C@@H](C)C[C@@H](C)C(=O)/C=C/[C@H]1C [compound 3, YC-17]
- Percent of enzyme in high-spin state at saturating substrate (MycCI [2]): ~ 30%
- C-H oxidation of the compound by the enzyme (MycCI/MycCII): unable to catalyze C-H oxidation

Molecule: MycCII (from UniProt Q83WF4)
- Kd [4]: 7 µM

B1: MycCII: [3Fe-4S]-type ferredoxin encoded by mycCII, redox partner of MycCI (protein)
chain: MRIVLDAERCVGAGQCEATAPELFTQGDDGLGLVRDRPVTPELLGPAREAVDRCPVRAIRIESSVRTGWARGAG
modifications: left off: His tag, N-terminal, state not stated
- Kd (MycCI [5]): 7 µM
